Where two headings read alike, the source gives them in different places.
Experiment: Tissue half-life (t1/2) and Cmax in plasma, brain, kidney and liver after oral administration to CD-1 mice
Assay type: in vivo, mouse
Conditions: for half-life: male, mouse
Procedure: In vivo studies were conducted to observe the effect of the compounds of the invention in the subject animal. Male CD-1 mice, body weight of 20 grams at arrival, were used in these studies. Mice were given 30 mg/kg of compound in HPMC/Tween solution or suspension via oral gavage. Plasma, brain, and liver samples were collected at time periods of 1, 2, 4, 8, and 24 hours post dosing. One mouse was used per time point. Thus, a total of 5 mice were used for each compound tested. For sample collection, mice were euthanized with CO2. Blood samples were taken by cardiac puncture and kept on ice. Brain and liver samples were collected immediately after bleeding and the samples were kept on dry ice. For calculation of tissue half-lives (t1/2s), the terminal rate constant k was estimated by the absolute value of the slope of a log-linear regression of the terminal phase of the tissue concentration-time profile. The tissue half-life t1/2 is ln(2)/k.
The following table includes t1/2 data for plasma, brain, kidney, and liver obtained after oral administration.
Tissue Half-Life Data for Various Quinazolinone Compounds (PO)

[1] = brain t1/2, 30 mg/kg oral gavage (PO), read-out: Half-Lives (h) Brain (converted)
[2] = kidney t1/2, 30 mg/kg oral gavage (PO), read-out: Half-Lives (h) Kidney (converted)
[3] = liver t1/2, 30 mg/kg oral gavage (PO), read-out: Half-Lives (h) Liver (converted)
[4] = plasma t1/2, 30 mg/kg oral gavage (PO), read-out: Half-Lives (h) Plasma (converted)

COc1ccc(CCn2c(-c3cccnc3)nc3cc(N/C(=N/C4C[C@H]5C[C@@H]([C@@H]4C)C5(C)C)N4CCN(C#N)[C@@H](C)C4)ccc3c2=O)c(F)c1 (some centres unmarked) [Example 246]
half-life [1]: 5.8 h | half-life [2]: 3.1 h | half-life [3]: 18 h | half-life [4]: 5.7 h

COc1ccc(CCn2c(-c3cccnc3)nc3cc(NC(=N[C@H]4C[C@H]5C[C@@H]([C@@H]4C)C5(C)C)N4CCN(CC#N)[C@@H](C)C4)ccc3c2=O)c(F)c1 [Example 247, (3S)-4-(cyanomethyl)-N-{3-[2-(2-fluoro-4-methoxyphenyl)ethyl]-4-oxo-2-pyridin-3-yl-3,4-dihydroquinazolin-7-yl}-3-methyl-N′-[(1S,2S,3S,5R)-2,6,6-trimethylbicyclo[3.1.1]hept-3-yl]piperazine-1-carboximidamide]
half-life [1]: 12 h | half-life [2]: 11 h | half-life [3]: 8 h | half-life [4]: 18 h

COc1ccc(CCn2c(-c3cccnc3)nc3cc(NC(=N[C@H]4C[C@H]5C[C@@H]([C@@H]4C)C5(C)C)N4CCN[C@@H](CF)C4)ccc3c2=O)c(F)c1 [Example 248, (3R)-N-{3-[2-(2-fluoro-4-methoxyphenyl)ethyl]-4-oxo-2-pyridin-3-yl-3,4-dihydroquinazolin-7-yl}-3-(fluoromethyl)-N′-[(1S,2S,3S,5R)-2,6,6-trimethylbicyclo[3.1.1]hept-3-yl]piperazine-1-carboximidamide]
half-life [1]: 14 h | half-life [2]: 11 h | half-life [3]: 6.2 h | half-life [4]: 5.3 h

COc1ccc(CCn2c(-c3ccncc3)nc3cc(NC(=N[C@H]4C[C@H]5C[C@@H]([C@@H]4C)C5(C)C)N4CCN[C@@H](CF)C4)ccc3c2=O)c(F)c1 [Example 250]
half-life [1]: 3 h | half-life [2]: 5.7 h | half-life [3]: 8.8 h | half-life [4]: 26 h

COc1ccc(CCn2c(-c3cnccn3)nc3cc(NC(=N[C@H]4C[C@H]5C[C@@H]([C@@H]4C)C5(C)C)N4CCN[C@@H](CF)C4)ccc3c2=O)c(F)c1 [Example 251, (3R)-N-{3-[2-(2-fluoro-4-methoxyphenyl)ethyl]-4-oxo-2-pyrazin-2-yl-3,4-dihydroquinazolin-7-yl}-3-(fluoromethyl)-N′-[(1S,2S,3S,5R)-2,6,6-trimethylbicyclo[3.1.1]hept-3-yl]piperazine-1-carboximidamide]
half-life [1]: 5.4 h | half-life [2]: 8.6 h | half-life [3]: 6.8 h | half-life [4]: 4 h

COc1ccc(CCn2c(-c3nnc[nH]3)nc3cc(NC(=N[C@H]4C[C@H]5C[C@@H]([C@@H]4C)C5(C)C)N4CCN[C@@H](CF)C4)ccc3c2=O)c(F)c1 [Example 252, (3R)-N-[3-[2-(2-fluoro-4-methoxyphenyl)ethyl]-4-oxo-2-(4H-1,2,4-triazol-3-yl)-3,4-dihydroquinazolin-7-yl]-3-(fluoromethyl)-N′-[(1S,2S,3S,5R)-2,6,6-trimethylbicyclo[3.1.1]hept-3-yl]piperazine-1-carboximidamide]
half-life [2]: 8.4 h | half-life [3]: 16 h

COc1ccc(CCn2c(N3CCOCC3)nc3cc(NC(=N[C@H]4C[C@H]5C[C@@H]([C@@H]4C)C5(C)C)N4CCN[C@@H](CF)C4)ccc3c2=O)c(F)c1 [Example 253]
half-life [1]: 27 h | half-life [2]: 14 h | half-life [3]: 6.9 h | half-life [4]: 7.3 h

COc1ccc(CCn2c(-c3nccs3)nc3cc(NC(=N[C@H]4C[C@H]5C[C@@H]([C@@H]4C)C5(C)C)N4CCN[C@@H](CF)C4)ccc3c2=O)c(F)c1 [Example 254, (3R)-N-[3-[2-(2-fluoro-4-methoxyphenyl)ethyl]-4-oxo-2-(1,3-thiazol-2-yl)-3,4-dihydroquinazolin-7-yl]-3-(fluoromethyl)-N′-[(1 S,2S,3S,5R)-2,6,6-trimethylbicyclo[3.1.1]hept-3-yl]piperazine-1-carboximidamide]
half-life [1]: 11 h | half-life [2]: 9.6 h | half-life [3]: 20 h | half-life [4]: 15 h

COc1ccc(CCn2c(-c3ncc[nH]3)nc3cc(NC(=N[C@H]4C[C@H]5C[C@@H]([C@@H]4C)C5(C)C)N4CCN[C@@H](CF)C4)ccc3c2=O)c(F)c1 [Example 255, (3R)-N-[3-[2-(2-fluoro-4-methoxyphenyl)ethyl]-2-(1H-imidazoi-2-yl)-4-oxo-3,4-dihydroquinazolin-7-yl]-3-(fluoromethyl)-N′-[(1S,2S,3S,5R)-2,6,6-trimethylbicyclo[3.1.1]hept-3-yl]piperazine-1-carboximidamide]
half-life [1]: 25 h | half-life [3]: 7.3 h | half-life [4]: 5.6 h

COc1ccc(CCn2c(C#N)nc3cc(NC(=NC4C[C@H]5C[C@@H]([C@@H]4C)C5(C)C)N4CCN[C@@H](CF)C4)ccc3c2=O)c(F)c1 (stereo partly drawn) [Example 256, (3R)-N-{2-cyano-3-[2-(2-fluoro-4-methoxyphenyl)ethyl]-4-oxo-3,4-dihydroquinazolin-7-yl}-3-(fluoromethyl)-N′-[(1S,2S,5R)-26,6-trimethylbicyclo[3.1.1]hept-3-yl]piperazine-1-carboximidamide]
Half-Lives (h) Brain (brain t1/2, 30 mg/kg oral gavage (PO)): 15 h | Half-Lives (h) Liver (liver t1/2, 30 mg/kg oral gavage (PO)): 4.3 h | Half-Lives (h) Plasma (plasma t1/2, 30 mg/kg oral gavage (PO)): 5.4 h

C[C@@H]1[C@@H](N=C(Nc2ccc3c(=O)n(CCc4ccc(F)cc4)c(CF)nc3c2)N2CCN[C@@H](CF)C2)C[C@H]2C[C@@H]1C2(C)C [Example 257, (3R)-3-(fluoromethyl)-N-{2-(fluoromethyl)-3-[2-(4-fluorophenyl)ethyl]-4-oxo-3,4-dihydroquinazolin-7-yl}-N′-[(1 S,2S,3S,5R)-2,6,6-trimethylbicyclo[3.1.1]hept-3-yl]piperazine-1-carboximidamide]
half-life [1]: 12 h | half-life [3]: 3 h | half-life [4]: 20 h

COc1ccc(CCn2c(NC3CC3)nc3cc(NC(=N[C@H]4C[C@H]5C[C@@H]([C@@H]4C)C5(C)C)N4CCN[C@@H](CF)C4)ccc3c2=O)c(F)c1 [Example 258, (3R)-N-{2-(cyclopropylamino)-3-(2-(2-fluoro-4-methoxyphenyl)ethyl]-4-oxo-3,4-dihydroquinazolin-7-yl}-3-(fluoromethyl)-N′-[(1S,2S,3S,5R)-2,6,6-trimethylbicyclo[3.1.1]hept-3-yl]piperazine-1-carboximidamide]
half-life [3]: 2.9 h | half-life [4]: 5.3 h

C[C@@H]1[C@@H](/N=C(/Nc2ccc3c(=O)n(CCc4ccc(Cl)cc4Cl)cnc3c2)N2CCNC(=O)C2)C[C@@H]2C[C@H]1C2(C)C [Example 260, N-{3-[2-(2,4-dichlorophenyl)ethyl]-4-oxo-3,4-dihydroquinazolin-7-yl]-3-oxo-N′-[(1R,2S,3S,5S)-2,6,6-trimethylbicyclo[3.1.1]hept-3-yl]piperazine-1-carboximidamide]
half-life [2]: 7.3 h | half-life [4]: 7.2 h

COc1ccc(CCn2cnc3cc(N/C(=N/C4C[C@@H]5C[C@H]([C@@H]4C)C5(C)C)N4CC(C)CC(C)C4)ccc3c2=O)c(F)c1 (stereo partly drawn) [Example 274, N-(3-{2-[2-fluoro-4-(methyloxy)phenyl]ethyl}-4-oxo-3,4-dihydro-7-quinazolinyl)-3,5-dimethyl-N-[(1R,2S,5S)-2,6,6-trimethylbicyclo[3.1.1]hept-3-yl]-1-piperidinecarboximidamide]
half-life [2]: 2.7 h | half-life [3]: 2.3 h | half-life [4]: 2.1 h

COc1ccc(CCn2cnc3cc(N/C(=N/[C@H]4C[C@@H]5C[C@H]([C@@H]4C)C5(C)C)N4CCC[C@H]4CO)ccc3c2=O)c(F)c1 [Example 281, (2S)-N-(3-{2-[2-fluoro-(methyloxy)phenyl]ethyl]-4-oxo-3,4-dihydro-7-quinazolinyl)-2-(hydroxymethyl)-N′-[(1R,2S,3S,5S)-2,6,6-trimethylbicyclo[3.1.1]hept-3-yl]-1-pyrrolidinecarboximidamide]
half-life [2]: 6.5 h | half-life [4]: 5.3 h

COc1ccc(CCn2cnc3cc(N/C(=N/[C@H]4C[C@@H]5C[C@H]([C@@H]4C)C5(C)C)N(C)CCO)ccc3c2=O)c(F)c1 [Example 288]
half-life [3]: 1.2 h | half-life [4]: 1.1 h

COc1ccc(CCn2c(-c3cccnc3)nc3cc(N/C(=N/[C@H]4C[C@@H]5C[C@H]([C@@H]4C)C5(C)C)N4C[C@@H](C)N(C#N)[C@@H](C)C4)ccc3c2=O)c(F)c1 [Example 295]
half-life [1]: 4.9 h | half-life [3]: 9.5 h | half-life [4]: 3.3 h

COc1ccc(CCn2c(-c3cccnc3)nc3cc(N/C(=N/[C@H]4C[C@@H]5C[C@H]([C@@H]4C)C5(C)C)N4C[C@@H](C)N(O)[C@@H](C)C4)ccc3c2=O)c(F)c1 [Example 296, (3R,5S)-N-[3-{2-[2-fluoro-4-(methyloxy)phenyl]ethyl}-4-oxo-2-(3-pyridinyl)-3,4-dihydro-7-quinazolinyl]-4-hydroxy-3,5-dimethyl-N′-[(1R,2S,3S,5S)-2,6,6-trimethylbicyclo[3.1.1]hept-3-yl]-1-piperazinecarboximidamide]
half-life [2]: 3.3 h | half-life [3]: 3.2 h | half-life [4]: 4.9 h

COc1ccc(CCn2cnc3cc(N/C(=N/[C@H]4C[C@@H]5C[C@H]([C@@H]4C)C5(C)C)N4C[C@@H](C)N(C#N)[C@@H](C)C4)ccc3c2=O)c(F)c1 [Example 301, (3R,5S)-4-cyano-N-(3-{-[2-fluoro-4-(methyloxy)phenyl]ethyl}-4-oxo-3,4-dihydro-7-quinazolinyl]-3,5-dimethyl-N′-[(1R,2S,3S,5S)-2,6,6-trimethylbicyclo[3.1.1]hept-3-yl]-1-piperazinecarboximidamide]
half-life [2]: 9.4 h | half-life [3]: 3.6 h | half-life [4]: 2.5 h
